Assay results taken from US20170304388A1, “NEW INDICATION OF CARDIOVASCULAR DRUGS FOR PREPARATION OF CANCER INHIBITION PHARMACEUTICAL COMPOSITION” (LAUNX BIOMEDICAL CO., LTD., priority 2014, published 2017).

Key:
Assay type in all cases: cell-based
[1] = tested on: SAS; assay: Cell viability analysis (WST-1), SAS; conditions: Table 4, repeated experiments, drug 10 μM, 72 hours
Procedure, shortened: (§1)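 Drug tested at 10 μM on 3000 cells per well over 72 h. Read-out: WST-1 (9:1 medium:stock), 37° C, 30–90 min, OD450 nm, expressed as survival rate.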

[2] = tested on: MDA-MB231; assay: Cell viability analysis (WST-1), MDA-MB231; conditions: Table 4, repeated experiments, drug 10 μM, 72 hours
[3] = tested on: MKN-45 (Gastric Adenocarcinoma); assay: Cell viability analysis (WST-1), MKN-45; conditions: Table 4, repeated experiments; drug 10 μM, 72 hours, WST-1
[4] = tested on: H1650 (Lung Adenocarcinoma); assay: Cell viability analysis (WST-1), H1650; conditions: Table 4, repeated experiments; drug 10 μM, 72 hours, WST-1
[5] = tested on: 786-O; assay: Cell viability analysis (WST-1), 786-O; conditions: Table 4, repeated experiments, drug 10 μM, 72 hours
Procedure, shortened: as §1

[6] = tested on: A549 (Lung Adenocarcinoma); assay: Cell viability analysis (WST-1), A549; conditions: Table 4, repeated experiments; drug 10 μM, 72 hours, WST-1
[7] = tested on: AsPC-1; assay: Cell viability analysis (WST-1), AsPC-1; conditions: Table 4, repeated experiments, drug 10 μM, 72 hours
Procedure, shortened: as §1

[8] = tested on: Hep3B; assay: Cell viability analysis (WST-1), Hep3B; conditions: Table 4, repeated experiments, drug 10 μM, 72 hours
Procedure, shortened: as §1

[9] = tested on: T24; assay: Cell viability analysis (WST-1), T24; conditions: Table 4, repeated experiments, drug 10 μM, 72 hours
Procedure, shortened: as §1

[10] = tested on: MCF7 (Mammary Gland, Adenocarcinoma); assay: Cell viability analysis (WST-1), MCF7; conditions: Table 4, repeated experiments; drug 10 μM, 72 hours, WST-1
[11] = tested on: HeLa (Cervix Adenocarcinoma); assay: Cell viability analysis (WST-1), HeLa; conditions: Table 4, repeated experiments; drug 10 μM, 72 hours, WST-1
[12] = tested on: LoVo (Colorectal Adenocarcinoma); assay: Cell viability analysis (WST-1), LoVo; conditions: Table 4, repeated experiments; drug 10 μM, 72 hours, WST-1
[13] = tested on: BCC; assay: Cell viability analysis (WST-1), BCC; conditions: Table 4, repeated experiments, drug 10 μM, 72 hours
[14] = tested on: NIH-OVCAR-3; assay: Cell viability analysis (WST-1), NIH-OVCAR-3; conditions: Table 4, repeated experiments, drug 10 μM, 72 hours
Procedure, shortened: as §1

[15] = tested on: TSGH-8301 (Urinary Bladder Carcinoma); assay: Cell viability analysis (WST-1), TSGH-8301; conditions: Table 4, repeated experiments; drug 10 μM, 72 hours, WST-1
[16] = tested on: C-33A; assay: Cell viability analysis (WST-1), C-33A; conditions: Table 4, repeated experiments, drug 10 μM, 72 hours
Procedure, shortened: as §1

[17] = tested on: PC3 (Prostate Adenocarcinoma); assay: Cell viability analysis (WST-1), PC3; conditions: Table 4, repeated experiments; drug 10 μM, 72 hours, WST-1
[18] = tested on: TOV-21G; assay: Cell viability analysis (WST-1), TOV-21G; conditions: Table 4, repeated experiments, drug 10 μM, 72 hours
Procedure, shortened: as §1

[19] = tested on: HCT116 (Colorectal Carcinoma); assay: Cell viability analysis (WST-1), HCT116; conditions: Table 4, repeated experiments; drug 10 μM, 72 hours, WST-1
[20] = tested on: AGS (Gastric Adenocarcinoma); assay: Cell viability analysis (WST-1), AGS; conditions: Table 4, repeated experiments; drug 10 μM, 72 hours, WST-1
[21] = tested on: A375 (Amelanotic Melanoma); assay: Cell viability analysis (WST-1), A375; conditions: Table 4, repeated experiments; drug 10 μM, 72 hours, WST-1
[22] = tested on: BxPC-3; assay: Cell viability analysis (WST-1), BxPC-3; conditions: Table 4, repeated experiments, drug 10 μM, 72 hours
Procedure, shortened: as §1

[23] = tested on: cancer cell lines; assay: Growth inhibitory effects on the panel of cancer cell lines; conditions: drug 10 μM, 72 hours, WST-1
[24] = tested on: HepG2 (Hepatocellular Carcinoma); assay: Cell viability analysis (WST-1), HepG2; conditions: Table 4, repeated experiments; drug 10 μM, 72 hours, WST-1
[25] = tested on: U2OS; assay: Cell viability analysis (WST-1), U2OS; conditions: Table 4, repeated experiments, drug 10 μM, 72 hours
Procedure, shortened: as §1

O=C([O-])C[C@H](O)C[C@H](O)/C=C/c1c(C2CC2)nc2ccccc2c1-c1ccc(F)cc1.O=C([O-])C[C@H](O)C[C@H](O)/C=C/c1c(C2CC2)nc2ccccc2c1-c1ccc(F)cc1.[Ca+2] [Pitavastatin calcium (Livalo), Pitavastatin calcium]
survival rate (viability) of cancer cells, SAS [1]: 38.0374 | survival rate (viability) of cancer cells, MDA-MB231 [2]: 39.0358 | survival rate (viability) of cancer cells, MKN-45 [3]: 61.3 | survival rate (viability) of cancer cells, H1650 [4]: 49.9822 | survival rate (viability) of cancer cells, 786-O [5]: 16.46 | survival rate (viability) of cancer cells, A549 [6]: 89.44 | survival rate (viability) of cancer cells, AsPC-1 [7]: 51.36 | survival rate (viability) of cancer cells, Hep3B [8]: 96.34 | survival rate (viability) of cancer cells, T24 [9]: 52.63 | survival rate (viability) of cancer cells, MCF-7 [10]: 83.57 | survival rate (viability) of cancer cells, HeLa [11]: 36.91 | survival rate (viability) of cancer cells, LoVo [12]: 65.15 | survival rate (viability) of cancer cells, BCC [13]: 26.77 | survival rate (viability) of cancer cells, NIH-OVCAR-3 [14]: 61.41 | survival rate (viability) of cancer cells, TSGH-8301 [15]: 48.92 | survival rate (viability) of cancer cells, C-33A [16]: 74.75 | survival rate (viability) of cancer cells, PC-3 [17]: 27.54 | survival rate (viability) of cancer cells, TOV-21G [18]: 21.79 | survival rate (viability) of cancer cells, HCT116 [19]: 35.07 | survival rate (viability) of cancer cells, AGS [20]: 19.17 | survival rate (viability) of cancer cells, A375 [21]: 22.09 | survival rate (viability) of cancer cells, BxPC-3 [22]: 59.78 | inhibition effect on different cancer cell lines (in words) [23]: significant inhibition effect | survival rate (viability) of cancer cells, HepG2 [24]: 98.06 | survival rate (viability) of cancer cells, U2OS [25]: 43.44
